{
  "source": "the OPERA property sets (Mansouri et al. 2018)",
  "data": [
    {"settings": "not given", "units": {"melting point": "°C", "boiling point": "°C"}, "values": [
      {"smiles": "Clc1cc2oc3c(Cl)c(Cl)ccc3c2cc1Cl", "log10 vapour pressure (mmHg)": -7.68, "melting point": 195},
      {"smiles": "O=C1c2c(O)cccc2C(=O)C2C(O)=CC=CC12", "note": "(stereo not drawn)", "melting point": 280},
      {"smiles": "CNCCO", "boiling point": 158, "log10 vapour pressure (mmHg)": 0.0346, "melting point": -4.5, "ready biodegradability": "readily biodegradable"},
      {"smiles": "Nc1ccccc1Nc1ccccc1", "boiling point": 313, "melting point": 79.5},
      {"smiles": "FC(F)(F)C(F)(F)C(F)(F)C(F)(F)C(F)(F)C(F)(F)C(F)(F)F", "boiling point": 82.5, "log10 vapour pressure (mmHg)": 1.88, "melting point": -78},
      {"smiles": "CCC(C)(C)c1cc(C)cc(C(C)(C)CC)c1O", "boiling point": 283},
      {"smiles": "COC(=O)C(=O)OC", "boiling point": 164, "log10 vapour pressure (mmHg)": 0.0584, "melting point": 54.3},
      {"smiles": "C1=CCCCCCC1", "melting point": -12},
      {"smiles": "CNC(=O)ON=C(SC)C(=O)N(C)C", "log10 Koc (L/kg)": 1, "melting point": 101},
      {"smiles": "C#CCN1C(=O)COc2cc(F)c(N3C(=O)C4=C(CCCC4)C3=O)cc21", "melting point": 202},
      {"smiles": "Cc1c(F)c(F)c(C)c(F)c1F", "boiling point": 144, "melting point": 36},
      {"smiles": "CC(C)N", "boiling point": 31.7, "log10 vapour pressure (mmHg)": 2.76, "melting point": -95.1},
      {"smiles": "O=C(O)C=CC=Cc1ccc2c(c1)OCO2", "melting point": 215},
      {"smiles": "CCNC=O", "boiling point": 198},
      {"smiles": "CCSCC", "boiling point": 92.1, "log10 Henry constant (atm·m³/mol)": -2.77, "log10 vapour pressure (mmHg)": 1.78, "melting point": -104},
      {"smiles": "C=C1CC=C(C(C)C)CC1", "boiling point": 174},
      {"smiles": "CC(=O)Nc1ccccc1O", "melting point": 208, "ready biodegradability": "readily biodegradable"},
      {"smiles": "CCC(C(=O)O)c1ccc(CC(C)C)cc1", "note": "(stereo not drawn)", "melting point": 52},
      {"smiles": "O=C(O)c1cccc(C(=O)O)n1", "ready biodegradability": "readily biodegradable"},
      {"smiles": "ClCc1ccc(Br)cc1", "boiling point": 236, "melting point": 50},
      {"smiles": "Clc1ccc(Cl)c(Cl)c1", "boiling point": 214, "log10 Henry constant (atm·m³/mol)": -2.85, "log10 Koa": 4.95, "log10 Koc (L/kg)": 3.1, "log10 vapour pressure (mmHg)": -0.337, "melting point": 17, "ready biodegradability": "not readily biodegradable"},
      {"smiles": "CCNC(=O)/C=C(C)/C=C/C=C(C)/C=C/c1c(C)cc(OC)c(C)c1C", "melting point": 180},
      {"smiles": "COC(=O)C(C)=O", "boiling point": 136},
      {"smiles": "CC1(C)C(C=C(Cl)Cl)C1C(=O)OC(C#N)c1cccc(Oc2ccccc2)c1", "note": "(stereo not drawn)", "log10 Koc (L/kg)": 5, "melting point": 81.3},
      {"smiles": "CCCCCI", "boiling point": 155, "log10 Henry constant (atm·m³/mol)": -1.71, "log10 vapour pressure (mmHg)": 0.642, "melting point": -85.6},
      {"smiles": "Cc1cc(C(C)(C)C)cc(C)c1CC1=NCCN1", "melting point": 132},
      {"smiles": "CN(C)C(CSC(N)=O)CSC(N)=O", "ready biodegradability": "not readily biodegradable"},
      {"smiles": "CC(C)c1ccc(C(C)C)cc1", "boiling point": 210, "log10 vapour pressure (mmHg)": -0.609, "melting point": -17, "ready biodegradability": "not readily biodegradable"},
      {"smiles": "CCN(CC)CCN1C(=O)CN=C(c2ccccc2F)c2cc(Cl)ccc21", "melting point": 79.5},
      {"smiles": "C[Si](C)(C)O[Si](O[Si](C)(C)C)(O[Si](C)(C)C)O[Si](C)(C)C", "log10 vapour pressure (mmHg)": -1.17},
      {"smiles": "Clc1ccc(-c2ccccc2Cl)c(Cl)c1", "log10 Koc (L/kg)": 4.84},
      {"smiles": "Cc1ccc(C#N)c(=O)[nH]1", "ready biodegradability": "readily biodegradable"},
      {"smiles": "Fc1cccc2ccccc12", "boiling point": 215, "melting point": -9},
      {"smiles": "Cc1ccccc1NC(=O)c1ccccc1", "melting point": 146},
      {"smiles": "CCC(=O)C=C(C)CC", "boiling point": 166},
      {"smiles": "CCn1cccc1", "boiling point": 130},
      {"smiles": "C1CCN(CCN2CCCCC2)CC1", "boiling point": 265, "melting point": -0.5},
      {"smiles": "O=c1cnn([C@@H]2O[C@H](CO)[C@@H](O)[C@H]2O)c(=O)[nH]1", "melting point": 158},
      {"smiles": "CCN(CC)CCOC(=O)c1ccc(N)cc1Cl.Cl", "melting point": 177},
      {"smiles": "CNCCc1ccccc1", "boiling point": 206},
      {"smiles": "CC1=CCC2C(C1)C2(C)C", "note": "(stereo not drawn)", "boiling point": 170},
      {"smiles": "CCOC(=O)CC1CCCCC1", "boiling point": 211},
      {"smiles": "COc1c2occc2cc2ccc(=O)oc12", "melting point": 148, "ready biodegradability": "not readily biodegradable"},
      {"smiles": "Cc1ccccc1Oc1ccccc1", "boiling point": 264, "melting point": 21.7},
      {"smiles": "CCCCCCCC[C@H](O)[C@H](O)CCCCCCCC(=O)O", "melting point": 90},
      {"smiles": "O=C(O)[C@H](O)[C@@H](O)[C@H](O)[C@H](O)C(O)CO", "note": "(stereo partly drawn)", "melting point": 146},
      {"smiles": "Fc1c(F)c(F)c(I)c(F)c1F", "boiling point": 166, "melting point": -29},
      {"smiles": "CC(=O)OCC(C)C", "boiling point": 116, "log10 Henry constant (atm·m³/mol)": -3.34, "log10 Koa": 3.45, "log10 vapour pressure (mmHg)": 1.25, "melting point": -98.8, "ready biodegradability": "readily biodegradable"},
      {"smiles": "CC(=O)n1ccnc1", "melting point": 102},
      {"smiles": "CCCCCCCCCCCCCCCC(=O)OC(=O)CCCCCCCCCCCCCCC", "melting point": 64},
      {"smiles": "Cc1cc[nH]n1", "boiling point": 204, "melting point": 36.5},
      {"smiles": "N#C/C=C(\\Cl)C#N", "boiling point": 172, "melting point": 60.5},
      {"smiles": "O=C1NCc2ccccc21", "boiling point": 338, "melting point": 151},
      {"smiles": "CCOC(=O)Cn1c(=O)sc2cccc(Cl)c21", "log10 vapour pressure (mmHg)": -5.56, "melting point": 79.2},
      {"smiles": "COc1nccnc1CC(C)C", "log10 Henry constant (atm·m³/mol)": -4.31},
      {"smiles": "CCCCCCOC", "boiling point": 126},
      {"smiles": "COc1nc(C)nc(NC(=O)NS(=O)(=O)c2ccccc2Cl)n1", "log10 Koc (L/kg)": 2.19, "log10 vapour pressure (mmHg)": -10.6, "melting point": 176},
      {"smiles": "COP(=S)(OC)Oc1cc(Cl)c(Cl)cc1Cl", "log10 vapour pressure (mmHg)": -4.12, "melting point": 41},
      {"smiles": "Oc1ccc(C2CCCC2)cc1", "melting point": 65},
      {"smiles": "Cc1cccc(N=Cc2ccccc2)c1", "boiling point": 315, "melting point": 31},
      {"smiles": "O=C1CCc2ccccc21", "boiling point": 243, "melting point": 42},
      {"smiles": "CCCCCCCCCC(C)=O", "boiling point": 232, "log10 Henry constant (atm·m³/mol)": -4.2, "log10 vapour pressure (mmHg)": -1.38, "melting point": 15},
      {"smiles": "Nc1ccc2c(c1N)C(=O)c1ccccc1C2=O", "melting point": 290},
      {"smiles": "FC(Cl)C(F)(F)Br", "note": "(stereo not drawn)", "boiling point": 52.5},
      {"smiles": "Nc1ccc(Cl)c(Cl)c1Cl", "boiling point": 292, "log10 Koc (L/kg)": 2.6, "melting point": 73},
      {"smiles": "CCCCCOC(=O)CCC(=O)OCCCCC", "melting point": -10.8},
      {"smiles": "NS(=O)(=O)c1cc2c(s1)S(=O)(=O)CCC2=O", "melting point": 242},
      {"smiles": "CC1=CC(=O)CCC1", "boiling point": 201, "melting point": -21},
      {"smiles": "C=CC=CC=C", "boiling point": 78, "log10 vapour pressure (mmHg)": 1.95, "melting point": -12},
      {"smiles": "Fc1cc(F)nc(F)c1", "boiling point": 94.5},
      {"smiles": "CC(C)(I)I", "boiling point": 173},
      {"smiles": "c1ccc2cc3cc4ccccc4cc3cc2c1", "log10 Koc (L/kg)": 5.81, "log10 vapour pressure (mmHg)": -8.6, "melting point": 357},
      {"smiles": "CCC(C)(C)CC", "boiling point": 86, "log10 biodegradation half-life (days)": 0.954, "log10 vapour pressure (mmHg)": 1.92, "melting point": -135},
      {"smiles": "CCCCCCCCCN", "boiling point": 202, "log10 vapour pressure (mmHg)": -0.556, "melting point": -1},
      {"smiles": "CCC(=NO)C(C)=NO", "melting point": 172},
      {"smiles": "C1C2CC3C4CC5CC(C14)C(C2)C3C5", "log10 biodegradation half-life (days)": 3.3},
      {"smiles": "c1coc(CSSCc2ccco2)c1", "melting point": 10},
      {"smiles": "CCOc1ccc(Cl)cc1", "boiling point": 213, "melting point": 21},
      {"smiles": "O=[N+]([O-])O[C@H]1CO[C@H]2[C@@H]1OC[C@H]2O[N+](=O)[O-]", "melting point": 70},
      {"smiles": "O=C(O)CCOc1ccccc1", "boiling point": 240, "melting point": 97.5},
      {"smiles": "O=C1CCC(c2ccccc2)O1", "note": "(stereo not drawn)", "boiling point": 306, "melting point": 36.5},
      {"smiles": "O=C(Nc1cc(Cl)cc(Cl)c1O)c1c(O)c(Cl)cc(Cl)c1Cl", "melting point": 210}
    ]},
    {"settings": "fish", "values": [
      {"smiles": "Clc1cc2oc3c(Cl)c(Cl)ccc3c2cc1Cl", "log10 BCF": 2.72},
      {"smiles": "CC12CCCC1C1CCC3CCCCC3(C)C1CC2", "note": "(stereo not drawn)", "log10 biotransformation half-life (days)": 1.67},
      {"smiles": "Clc1ccc(Cl)c(Cl)c1", "log10 BCF": 3.32, "log10 biotransformation half-life (days)": 1.2},
      {"smiles": "CC1(C)C(C=C(Cl)Cl)C1C(=O)OC(C#N)c1cccc(Oc2ccccc2)c1", "note": "(stereo not drawn)", "log10 BCF": 2.53},
      {"smiles": "CC(C)c1ccc(C(C)C)cc1", "log10 BCF": 3.24, "log10 biotransformation half-life (days)": 0.6},
      {"smiles": "C=C(C)CCCCCCC", "log10 biotransformation half-life (days)": -0.06},
      {"smiles": "COP(=S)(OC)Oc1cc(Cl)c(Cl)cc1Cl", "log10 BCF": 3.58, "log10 biotransformation half-life (days)": 0.95},
      {"smiles": "Nc1ccc(Cl)c(Cl)c1Cl", "log10 BCF": 2, "log10 biotransformation half-life (days)": -0.27},
      {"smiles": "[2H]C([2H])([2H])C([2H])([2H])C([2H])([2H])C([2H])([2H])C([2H])([2H])C([2H])([2H])C([2H])([2H])C([2H])([2H])C([2H])([2H])C([2H])([2H])C([2H])([2H])C([2H])([2H])C([2H])([2H])C([2H])([2H])C([2H])([2H])C([2H])([2H])[2H]", "log10 biotransformation half-life (days)": 1.47}
    ]}
  ]
}
